Reference: US20050182252A1, “Novel 2'-C-methyl nucleoside derivatives” (priority 2004, published 2005)
Structures can show the parent of a compound that is named as a salt.

**Q.** With C[C@@]12OC(=O)O[C@@H]1[C@@H](COP1(=O)OCC[C@H](c3cccc(Cl)c3)O1)O[C@H]2n1ccc2c(N)ncnc21 (stereo partly drawn) [Compound 23.1, 4-amino-7-(2′,3′-carbonyl-cis-5′-O-[4-(S)-(3-chlorophenyl)-2-oxo-4,3,2-dioxaphosphorinan-2-yl]-2′-C-methyl-beta-D-ribofuranosyl)-7H-pyrrolo[2,3-d]pyrimidine] as the compound, how does the melting point read?
**A.** 127 to 130 °C

**Q.** For CC(=O)O[C@@H]1[C@@H](COP2(=O)OCC[C@H](c3ccncc3)O2)O[C@@H](n2ccc3c(N)ncnc32)[C@]1(C)O (stereo partly drawn) [Compound 22.1, 4-amino-7-(3′-acetyl-cis-5′-O-[4-(S)-(pyridin-4-yl)-2-oxo-1,3,2-dioxaphosphorinan-2-yl]-2′-C-methyl-beta-D-ribofuranosyl)-7H-pyrrolo[2,3-d]pyrimidine], which melting point is on record?
**A.** 182 to 185 °C

**Q.** Which melting point does the source give for C[C@@]1(O)[C@H](O)[C@@H](COP2(=O)OCC[C@H](c3ccc(F)c(Br)c3)O2)O[C@H]1n1ccc2c(N)ncnc21 (stereo partly shown) (as salt: salt) [Compound 16.31] here?
**A.** 122 to 125 °C

**Q.** Which melting point does the source give for C[C@@]1(O)[C@H](O)[C@@H](COP2(=O)OC[C@H](c3ccccc3)[C@H](c3ccccc3)O2)O[C@H]1n1ccc2c(=O)[nH]c(N)nc21 (stereo partly drawn) (as salt: trifluoroacetic acid salt) [Compound 17.17, 2-amino-7-(cis-5′-[4,5-cis-diphenyl-2-oxo-1,3,2-dioxaphosphorinan-2-yl]-2-C methyl-beta-D-ribofuranosyl)-7H-pyrrolo[2,3-d]pyrimidin-4(3H)-one trifluoroacetic acid salt] here?
**A.** 187 to 190 °C

**Q.** Which melting point does the source give for C[C@@]1(O)[C@H](O)[C@@H](COP2(=O)OCC[C@H](c3cc(Cl)cc(Cl)c3)O2)O[C@H]1n1ccc2c(N)ncnc21 (stereo partly drawn) [Compound 16.26, 4-amino-7-(cis-5′-O-[4-(3,5-dichlorophenyl)-2-oxo-1,3,2-dioxaphosphorinan-2-yl]-2′-C-methyl-beta-D-ribofuranosyl)-7H-pyrrolo[2,3-d]pyrimidine] here?
**A.** 182 to 185 °C

**Q.** Which melting point does the source give for C[C@@]1(O)[C@H](O)[C@@H](COP2(=O)OCC[C@H](c3cc(F)ccc3F)O2)O[C@H]1n1ccc2c(N)ncnc21 (stereo partly drawn) [Compound 16.2, 4-amino-7-(cis-5′-O-[4-(2,5-difluorophenyl)-2-oxo-1,3,2-dioxaphosphorinan-2-yl]-2-C-methyl-beta-D-ribofuranosyl)-7H-pyrrolo[2,3-d]pyrimidine] here?
**A.** 145 to 148 °C

**Q.** For C[C@@]1(O)[C@H](O)[C@@H](COP2(=O)OCC[C@H](c3cccc(C#N)c3)O2)O[C@H]1n1ccc2c(N)ncnc21 (stereo partly drawn) [Compound 16.43, 4-amino-7-(cis-5′-O-[4-(3-cyanophenyl)-2-oxo-1,3,2-dioxaphosphorinan-2-yl]-2′-C-methyl-beta-D-ribofuranosyl)-7H-pyrrolo[2,3-d]pyrimidine], which melting point is on record?
**A.** 157 to 160 °C

**Q.** With C[C@@]1(O)[C@H](O)[C@@H](COP2(=O)OCC[C@@H](c3cccnc3)O2)O[C@H]1n1cnc2c(N)ncnc21 (stereo partly drawn) [Compound 21.9, cis-5′-O-[4-(pyridine-3-yl)-2-oxo-1,3,2-dioxaphosphorinan-2-yl]-2′-C-beta-methyl-adenosine] as the compound, how does the melting point read?
**A.** 137 to 140 °C

**Q.** Which melting point does the source give for C[C@@]1(O)[C@H](O)[C@@H](COP2(=O)OCC[C@H](c3ccccc3Br)O2)O[C@H]1n1ccc2c(=O)[nH]c(N)nc21 (stereo partly drawn) [Compound 17.21, 2-amino-7-(cis-5′-O-[4-(2-bromophenyl)-2-oxo-1,3,2-dioxaphosphorinan-2-yl]-2′-C methyl-beta-D-ribofuranosyl)-7H-pyrrolo[2,3-d]pyrimidin-4(3H)-one] here?
**A.** 180 °C

**Q.** Which melting point does the source give for C[C@@]1(O)[C@H](O)[C@@H](COP2(=O)OCC[C@@H](c3ccccc3Br)O2)O[C@H]1n1ccc2c(N)ncnc21 (stereo partly drawn) [Compound 16.10, 4-amino-7-(cis-5′-O-[4-(2-bromophenyl)-2-oxo-1,3,2-dioxaphosphorinan-2-yl]-2′-C-methyl-beta-D-ribofuranosyl)-7H-pyrrolo[2,3-d]pyrimidine] here?
**A.** 132 to 135 °C
